Measurements taken from US4672117A, “Antipsychotic gamma-carbolines” (American Home Products Corporation, priority 1985, dated 1987).

Key:
[1] = tested on: male CD rats; assay: conditioned avoidance, lever-response (L-R); format: in vivo; conditions: rat; for L-R relative activity: lever-response conditioned avoidance; for ED50: po, lever-response, p.o., interval in brackets, read-out: L-R AB50 (50% block in avoidance responding)
Description: (§1) The antipsychotic properties of the compounds of this invention were established by standard pharmacologically accepted procedures involving two conditioned avoidance studies in which trained male CD rats (Charles River), 400-450 gm body weight are exposed to a fifteen second warning tone (conditioned stimulus) continued for an additional fifteen seconds accompanied by electric shock. The rat can avoid the electric shock by depression of a response lever (lever-response) or in a different study by jumping to an exposed shelf (shelf-jump response). In either test situation, a response during the initial warning tone is considered an avoidance response while a response during shock delivery is considered an escape response. The avoidance response is determined and expressed as a percentage of total trials from an appropriate number of trials and a 50% block in avoidance responding (AB50) is obtained from a dose-effect regression line. All the data is based upon (mg/kg) dosing of the animals. The shelf-jump response test procedure follows that of Herman et al., Comm. in Psychopharm., 3, pp. 165-171 (1979).
(§2) The following examples illustrate the production of compounds of this invention. After each example the pharmacological evaluation for the compound produced is presented. The conditioned avoidance tests are reported as relative activity for the shelf-jump (S-J) at the intraperitoneal (i.p.) dose administered in mg/kg and the AB50 is presented for the lever-response (L-R) test at the oral (p.o.) dose in mg/kg. The inhibition constant is reported for limbic D-2 binding expressed in nM concentration.

[2] = biological target: T1, limbic D-2 dopamine receptor (Rattus norvegicus, UniProt P61169); assay: limbic D-2 binding, 3H-spiroperidol, homogenized limbic brain tissue; conditions: 95% confidence interval in brackets, read-out: Limbic D-2 inhibition constant (Ki)
T1 construct: from tissue
T1 sequence (P61169 whole entry): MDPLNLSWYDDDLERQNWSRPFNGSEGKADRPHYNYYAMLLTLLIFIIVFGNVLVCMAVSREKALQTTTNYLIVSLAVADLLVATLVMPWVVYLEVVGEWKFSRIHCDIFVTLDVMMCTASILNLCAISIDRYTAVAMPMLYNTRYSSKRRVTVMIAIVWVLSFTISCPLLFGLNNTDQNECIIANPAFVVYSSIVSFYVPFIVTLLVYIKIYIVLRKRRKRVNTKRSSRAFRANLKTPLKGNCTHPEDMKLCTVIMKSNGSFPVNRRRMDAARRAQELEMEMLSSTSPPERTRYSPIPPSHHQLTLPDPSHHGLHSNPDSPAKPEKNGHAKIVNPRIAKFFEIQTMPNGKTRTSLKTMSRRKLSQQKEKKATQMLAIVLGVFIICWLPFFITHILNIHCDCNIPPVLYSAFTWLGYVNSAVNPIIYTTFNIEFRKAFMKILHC
Procedure: Binding in the presence of the test compound is expressed as a percent of specific binding (total binding less binding in the presence of 1 μM (+)butaclamol). An inhibition constant (Ki) is calculated for each test compound to categorize its limbic D-2 binding potential. The larger the number, the less potential for dopamine receptor binding and attendant side effects from administration of the antipsychotic agent.
as §2

[3] = tested on: male CD rats; assay: conditioned avoidance, shelf-jump response (S-J); format: in vivo; conditions: rat
Description: as §1, §2

[4] = antagonism of apomorphine-induced stereotyped behavior; conditions: mouse, in vivo, ip, CF-1 mice, 10 mg/kg apomorphine s.c. 30 min later; measure of extrapyramidal side effects; read-out: ED50 for inhibition of apomorphine-induced stereotyped behavior

Structure (SMILES)	Ki [2]	S-J relative activity ([3]; 40 mg/kg i.p.)	other results
c1ccc(C2CN(CCCCc3ccncc3)Cc3c2[nH]c2ccccc32)cc1 (stereo not drawn) [Example 2, 2,3,4,5-Tetrahydro-4-phenyl-2-[4-(4-pyridinyl)butyl]-1H-pyrido[4,3-b]indole]	404 nM		S-J relative activity ([3]; 20 mg/kg i.p.): Very weak
c1ccc(C2CN(CCc3ccccn3)Cc3c2[nH]c2ccccc32)cc1 (stereo not drawn) [Example 4, 2,3,4,5-Tetrahydro-4-phenyl-2-[2-(2-pyridinyl)ethyl]-1H-pyrido[4,3-b]indole]	600 nM		
Fc1ccc(-n2c3c(c4cc(F)ccc42)CN(CCCCc2ccccn2)CC3)cc1 [Example 6, 8-Fluoro-5-(4-fluorophenyl)-2,3,4,5-tetrahydro-2-[4-(2-pyridinyl)butyl]-2H-pyrido[4,3-b]indole]		Active	
Fc1ccc(-n2c3c(c4cc(F)ccc42)CN(CCc2cnccn2)CC3)cc1 [Example 8, 8-Fluoro-5-(4-fluorophenyl)-2,3,4,5-tetrahydro-2-[2-(2-pyrazinyl)ethyl]-1H-pyrido[4,3-b]indole]		Very Active	L-R relative activity ([1]; 20 mg/kg p.o.): Active; ED50 [1]: 15.2 mg/kg

The remaining compounds from weak to strong by Ki [2], led by results:

Ki [2]	Structure (SMILES)	S-J relative activity ([3]; 40 mg/kg i.p.)	other results
140 nM	c1ccc(C2CN(CCCc3cccnc3)Cc3c2[nH]c2ccccc32)cc1 (stereo not drawn) [Example 3, 2,3,4,5-Tetrahydro-4-phenyl-2-[3-(3-pyridinyl)propyl]-1H-pyrido[4,3-b]indole]		
12 nM	Fc1ccc(-n2c3c(c4cc(F)ccc42)CN(CCc2ccncc2)CC3)cc1 [Example 7, 8-Fluoro-5-(4-fluorophenyl)-2,3,4,5-tetrahydro-2-[2-(4-pyridinyl)ethyl]-1H-pyrido[4,3-b]indole]	Active	
7 nM	Fc1ccc(-n2c3c(c4cc(F)ccc42)CN(CCc2ccccn2)CC3)cc1 [Example 1, 8-Fluoro-5-(4-fluorophenyl)-2,3,4,5-tetrahydro-2-[2-(2-pyridinyl)ethyl]-1H-pyrido[4,3-b]indole]		L-R relative activity ([1]; 20 mg/kg p.o.): Active; ED50 [1]: 6.3 mg/kg; S-J relative activity ([3]; 20 mg/kg i.p.): Active
1.07 nM	Fc1ccc(-n2c3c(c4cc(F)ccc42)CN(CCc2ccc4ccccc4n2)CC3)cc1 [Example 5, 8-Fluoro-5-(4-fluorophenyl)-2,3,4,5-tetrahydro-2-[2-(2-quinolinyl)ethyl]-1H-pyrido[4,3-b]indole]	Active	L-R relative activity ([1]; 40 mg/kg p.o.): Active; ED50 [4]: 1.62 mg/kg
